Reference: PubChem BioAssay AID1745844 (Carcinogenic Potency Database (CPDB), 2022)
Several values for one entry are separate records, joined by “and”; a condition that tells them apart may be missing. Equal entries are not always repeated. Activity calls are given as the source filed them. How the calls were made is not given here.

Tested on: rodent lifetime carcinogenesis bioassay, tumor incidence TD50
Test: chronic cancer bioassays in animals – CPDB, compiled studies (AID 1745844)

## O=C1CN(N=Cc2ccc([N+](=O)[O-])o2)C(=O)N1
mouse, strain B6C3F1, females, in feed, site: cervix uteri, lesion: leiomyosarcoma, dosed 64 weeks, study length 64 weeks
  TD50: 4000 mg/kg/day (inactive)
mouse, strain B6C3F1, females, in feed, site: liver, lesion: hepatocellular adenoma + hepatocellular carcinoma + neoplastic nodule, dosed 103 weeks, study length 105 weeks
  TD50: 2330 mg/kg/day
mouse, strain B6C3F1, females, in feed, site: ovary, lesion: granulosa-cell tumor, benign + granulosa-cell tumor, malignant + mixed tumor, benign + tubular adenoma, dosed 103 weeks, study length 105 weeks
  TD50: 866 mg/kg/day
mouse, strain B6C3F1, females, in feed, site: ovary, lesion: granulosa-cell tumor, benign + granulosa-cell tumor, malignant, dosed 103 weeks, study length 105 weeks
  TD50: 2560 mg/kg/day
mouse, strain B6C3F1, females, in feed, site: ovary, lesion: granulosa-cell tumor, benign, dosed 103 weeks, study length 105 weeks
  TD50: 8470 mg/kg/day
mouse, strain B6C3F1, females, in feed, site: ovary, lesion: granulosa-cell tumor, dosed 64 weeks, study length 64 weeks
  TD50: 4020 mg/kg/day (inactive)
mouse, strain B6C3F1, females, in feed, site: ovary, lesion: mixed tumor, benign + tubular adenoma, dosed 103 weeks, study length 105 weeks
  TD50: 1400 mg/kg/day
mouse, strain B6C3F1, females, in feed, site: ovary, lesion: mixed tumor, benign, dosed 103 weeks, study length 105 weeks
  TD50: 3380 mg/kg/day
mouse, strain B6C3F1, females, in feed, site: ovary, lesion: tubular adenoma, dosed 103 weeks, study length 105 weeks
  TD50: 2530 mg/kg/day
mouse, strain B6C3F1, males, in feed, site: any site (literature study), lesion: several types, types named in the paper, dosed 103 weeks, study length 105 weeks
  carcinogen call: negative (inactive)
mouse, strain BDF1, females, in feed, site: any site (literature study), lesion: several types, types named in the paper, dosed 104 weeks, study length 104 weeks
  carcinogen call: negative (inactive)
mouse, strain BDF1, females, in feed, site: liver, lesion: hemangioma, dosed 104 weeks, study length 104 weeks
  carcinogen call: negative (inactive)
mouse, strain BDF1, females, in feed, site: lung, lesion: adenocarcinoma, dosed 104 weeks, study length 104 weeks
  carcinogen call: negative (inactive)
mouse, strain BDF1, males, in feed, site: any site (literature study), lesion: several types, types named in the paper, dosed 104 weeks, study length 104 weeks
  carcinogen call: negative (inactive)
mouse, strain BDF1, males, in feed, site: liver, lesion: adenoma, dosed 104 weeks, study length 104 weeks
  carcinogen call: negative (inactive)
mouse, strain BDF1, males, in feed, site: liver, lesion: hemangioma, dosed 104 weeks, study length 104 weeks
  carcinogen call: negative (inactive)
mouse, strain BDF1, males, in feed, site: lung, lesion: adenoma, dosed 104 weeks, study length 104 weeks
  TD50: 53900 mg/kg/day (inactive)
mouse, strain Charles River CD1, females, in feed, site: liver, lesion: hemangioma, dosed 93 weeks, study length 100 weeks
  TD50: 4460 mg/kg/day (inactive)
mouse, strain Charles River CD1, females, in feed, site: liver, lesion: hemangiosarcoma, dosed 93 weeks, study length 100 weeks
  carcinogen call: negative (inactive)
mouse, strain Charles River CD1, females, in feed, site: liver, lesion: hepatocellular adenoma, dosed 93 weeks, study length 100 weeks
  carcinogen call: negative (inactive)
mouse, strain Charles River CD1, females, in feed, site: lung, lesion: alveolar-cell adenoma, dosed 93 weeks, study length 100 weeks
  carcinogen call: negative (inactive)
mouse, strain Charles River CD1, females, in feed, site: lung, lesion: alveolar-cell carcinoma, dosed 93 weeks, study length 100 weeks
  carcinogen call: negative (inactive)
mouse, strain Charles River CD1, males, in feed, site: all sites, lesion: myeloid leukemia, dosed 93 weeks, study length 100 weeks
  TD50: 588 mg/kg/day (inactive)
mouse, strain Charles River CD1, males, in feed, site: liver, lesion: hemangiosarcoma, dosed 93 weeks, study length 100 weeks
  carcinogen call: negative (inactive)
mouse, strain Charles River CD1, males, in feed, site: liver, lesion: hepatocellular adenoma, dosed 93 weeks, study length 100 weeks
  TD50: 1200 mg/kg/day (inactive)
mouse, strain Charles River CD1, males, in feed, site: liver, lesion: hepatocellular carcinoma, dosed 93 weeks, study length 100 weeks
  carcinogen call: negative (inactive)
mouse, strain Charles River CD1, males, in feed, site: lung, lesion: alveolar-cell adenoma, dosed 93 weeks, study length 100 weeks
  TD50: 833 mg/kg/day (inactive)
mouse, strain Charles River CD1, males, in feed, site: lung, lesion: alveolar-cell carcinoma, dosed 93 weeks, study length 100 weeks
  TD50: 17000 mg/kg/day (inactive)
rat, strain Charles River CD (Sprague-Dawley), females, in feed, site: any site (literature study), lesion: malignant tumor, dosed 104 weeks, study length 104 weeks
  carcinogen call: negative (inactive)
rat, strain Charles River CD (Sprague-Dawley), females, in feed, site: any site (literature study), lesion: one or several types, types not named, dosed 104 weeks, study length 104 weeks
  carcinogen call: negative (inactive)
rat, strain Charles River CD (Sprague-Dawley), females, in feed, site: mammary gland, lesion: several types, types named in the paper, dosed 104 weeks, study length 104 weeks
  carcinogen call: negative (inactive)
rat, strain Charles River CD (Sprague-Dawley), males, in feed, site: any site (literature study), lesion: malignant tumor, dosed 104 weeks, study length 104 weeks
  TD50: 1200 mg/kg/day (inactive)
rat, strain Charles River CD (Sprague-Dawley), males, in feed, site: any site (literature study), lesion: one or several types, types not named, dosed 104 weeks, study length 104 weeks
  carcinogen call: negative (inactive)
rat, strain Charles River CD (Sprague-Dawley), males, in feed, site: mammary gland, lesion: fibroadenoma, dosed 104 weeks, study length 104 weeks
  TD50: 878 mg/kg/day (inactive)
rat, strain Fischer 344, females, in feed, site: clitoral gland, lesion: adenoma, dosed 103 weeks, study length 105 weeks
  TD50: 93.7 mg/kg/day (inactive)
rat, strain Fischer 344, males, in feed, site: kidney, lesion: tubule adenoma + tubule carcinoma, dosed 103 weeks, study length 105 weeks
  TD50: 163 mg/kg/day and 698 mg/kg/day
rat, strain Fischer 344, males, in feed, site: liver, lesion: hepatocellular adenoma + hepatocellular carcinoma + neoplastic nodule, dosed 103 weeks, study length 105 weeks
  TD50: 332 mg/kg/day
rat, strain Fischer 344, males, in feed, site: subcutaneous tissue, lesion: fibroma, dosed 103 weeks, study length 105 weeks
  TD50: 303 mg/kg/day
rat, strain Fischer 344, males, in feed, site: urinary bladder, lesion: one or several types, types not named, dosed 104 weeks, study length 104 weeks
  carcinogen call: negative (inactive)
rat, strain Holtzman albino (Sprague-Dawley derived), females, in feed, site: mammary gland, lesion: fibroadenoma, dosed 36 weeks, study length 54 weeks
  TD50: 120 mg/kg/day (inactive)
rat, strain Holtzman albino (Sprague-Dawley derived), females, in feed, site: mammary tissue, wider than the gland, lesion: one or several types, types not named, dosed 44 weeks, study length 60 weeks
  TD50: 214 mg/kg/day (inactive)
rat, strain Sprague-Dawley, females, in feed, site: any site (literature study), lesion: several types, types named in the paper, dosed 75 weeks, study length 80 weeks
  TD50: 185 mg/kg/day (inactive)
rat, strain Sprague-Dawley, females, in feed, site: any site (literature study), lesion: several types, types named in the paper, dosed 104 weeks, study length 104 weeks
  TD50: 64.2 mg/kg/day
rat, strain Sprague-Dawley, females, in feed, site: mammary gland, lesion: fibroadenoma, dosed 104 weeks, study length 104 weeks
  TD50: 54.3 mg/kg/day

## O=C(O)c1cc(=O)[nH]c(=O)[nH]1
rat, strain Fischer 344, males, in feed, site: Zymbal's gland, lesion: one or several types, types not named, dosed 104 weeks, study length 104 weeks
  TD50: 2600 mg/kg/day
rat, strain Fischer 344, males, in feed, site: all sites, lesion: leukemia, dosed 104 weeks, study length 104 weeks
  TD50: 1690 mg/kg/day
rat, strain Fischer 344, males, in feed, site: liver, lesion: hepatocellular adenoma, dosed 52 weeks, study length 52 weeks
  TD50: 925 mg/kg/day
rat, strain Fischer 344, males, in feed, site: liver, lesion: hepatocellular adenoma, dosed 104 weeks, study length 104 weeks
  TD50: 395 mg/kg/day

## NC(=O)NNc1ccccc1
mouse, strain Swiss albino, females, in drinking water, site: liver, lesion: angioma, dosed 79 weeks, study length 79 weeks
  TD50: 2670 mg/kg/day (inactive)
mouse, strain Swiss albino, females, in drinking water, site: liver, lesion: angiosarcoma, dosed 79 weeks, study length 79 weeks
  TD50: 1980 mg/kg/day (inactive)
mouse, strain Swiss albino, females, in drinking water, site: lung, lesion: adenocarcinoma, dosed 79 weeks, study length 79 weeks
  TD50: 1250 mg/kg/day
mouse, strain Swiss albino, females, in drinking water, site: lung, lesion: adenoma, dosed 79 weeks, study length 79 weeks
  TD50: 150 mg/kg/day
mouse, strain Swiss albino, females, in drinking water, site: lung, lesion: several types, types named in the paper, dosed 79 weeks, study length 79 weeks
  TD50: 155 mg/kg/day
mouse, strain Swiss albino, males, in drinking water, site: liver, lesion: angiosarcoma, dosed 79 weeks, study length 79 weeks
  TD50: 2000 mg/kg/day (inactive)
mouse, strain Swiss albino, males, in drinking water, site: liver, lesion: several types, types named in the paper, dosed 79 weeks, study length 79 weeks
  TD50: 1790 mg/kg/day
mouse, strain Swiss albino, males, in drinking water, site: lung, lesion: adenoma, dosed 79 weeks, study length 79 weeks
  TD50: 158 mg/kg/day
mouse, strain Swiss albino, males, in drinking water, site: lung, lesion: several types, types named in the paper, dosed 79 weeks, study length 79 weeks
  TD50: 176 mg/kg/day

## C#C[C@]1(C(C)=O)CC[C@H]2[C@@H]3CCC4=C[C@@H](C(C)=O)CC[C@@H]4[C@H]3CC[C@@]21C (tested in a mixture with another compound)
mouse, strain (C3H x RIII)F1 (MTV+), females, in feed, site: mammary tissue, wider than the gland, lesion: one or several types, types not named, dosed 104 weeks, study length 104 weeks
  TD50: 0.858 mg/kg/day
mouse, strain (C3H x RIII)F1 (MTV+), males, in feed, site: mammary tissue, wider than the gland, lesion: one or several types, types not named, dosed 104 weeks, study length 104 weeks
  TD50: 0.3 mg/kg/day

## CCS(=O)(=O)c1ccc(S(N)(=O)=O)c2ccccc12
mouse, strain A x IF, females, in feed, site: lung, lesion: adenoma, dosed 100 weeks, study length 100 weeks
  TD50: 53.4 mg/kg/day
mouse, strain A x IF, females, in feed, site: urinary bladder, lesion: carcinoma, dosed 100 weeks, study length 100 weeks
  TD50: 34.2 mg/kg/day
mouse, strain IF x C57, females, in feed, site: urinary bladder, lesion: carcinoma, dosed 92 weeks, study length 92 weeks
  TD50: 15.3 mg/kg/day

## C=C/C=N/O
rat, strain Fischer 344, females, in drinking water, site: liver, lesion: hepatocellular carcinoma, dosed 104 weeks, study length 129 weeks
  TD50: 104 mg/kg/day
rat, strain Fischer 344, females, in drinking water, site: liver, lesion: hyperplastic nodule, dosed 30 weeks, study length 123 weeks
  TD50: 41.9 mg/kg/day
rat, strain Fischer 344, females, in drinking water, site: liver, lesion: hyperplastic nodule, dosed 104 weeks, study length 129 weeks
  TD50: 43.8 mg/kg/day
rat, strain Fischer 344, females, in drinking water, site: liver, lesion: several types, types named in the paper, dosed 104 weeks, study length 129 weeks
  TD50: 27.1 mg/kg/day
rat, strain Fischer 344, males, in drinking water, site: liver, lesion: hepatocellular carcinoma, dosed 30 weeks, study length 123 weeks
  TD50: 50.7 mg/kg/day
rat, strain Fischer 344, males, in drinking water, site: liver, lesion: hepatocellular carcinoma, dosed 104 weeks, study length 128 weeks
  TD50: 72.6 mg/kg/day
rat, strain Fischer 344, males, in drinking water, site: liver, lesion: hyperplastic nodule, dosed 30 weeks, study length 123 weeks
  TD50: 29.3 mg/kg/day
rat, strain Fischer 344, males, in drinking water, site: liver, lesion: hyperplastic nodule, dosed 104 weeks, study length 128 weeks
  TD50: 64.9 mg/kg/day
rat, strain Fischer 344, males, in drinking water, site: liver, lesion: several types, types named in the paper, dosed 30 weeks, study length 123 weeks
  TD50: 16.4 mg/kg/day
rat, strain Fischer 344, males, in drinking water, site: liver, lesion: several types, types named in the paper, dosed 104 weeks, study length 128 weeks
  TD50: 30.4 mg/kg/day
